Experimental data taken from patent US20230067929A1, “HETEROCYCLIC DERIVATIVES, PHARMACEUTICAL COMPOSITIONS AND THEIR USE IN THE TREATMENT, AMELIORATION OR PREVENTION OF CANCER” (Tolremo Therapeutics AG, priority 2018, published 2023).

Tested on: A375 cells
Test: A375 cell immunofluorescence assay (with 1 μM S1152 and 0.5 μM S1008), EC50
Type: cell-based
Settings: 1 μM S1152 + 0.5 μM S1008, one day, ratio FL2/FL3 staining (sc-365823 antibody)
Description: One thousand four hundred A375 cells were seeded in each well of a 384 well microplate. One day later they were treated with 1 μM S1152 (Selleckchem) in dimethyl sulfoxide, 0.5 μM S1008 (Selleckchem) and dose ranges of invention compounds for one day in Dulbecco's Modified Eagle's Medium supplemented with 10% fetal calf serum and 2 mM (2S)-2-amino-4-carbamoylbutanoic acid. Wells were incubated with 4% polyoxymethylene (Sigma Aldrich 158127) at ambient temperature. After ten minutes, polyoxymethylene was replaced with phosphate-buffered saline. After one minute phosphate-buffered saline was replaced with 0.2% polyethylene glycol octylphenyl ether in phosphate-buffered saline. After ten minutes at ambient temperature 0.2% polyethylene glycol octylphenyl ether in phosphate-buffered saline was replaced with 1% aminoethanoic acid in phosphate-buffered saline. […] After one hour at 37° C., the solution was replaced with phosphate-buffered saline twice. Phosphate-buffered saline was replaced with 2 μg/ml A-11029 (Invitrogen) in 0.05% polyoxyethylene (20) sorbitan monolaurate in phosphate-buffered saline. […] After one hour at ambient temperature in the dark, signal in wells was measured with a Acumen Cellista. 3,8-Diamino-5-[3-(diethylmethylammonio)propyl]-6-phenylphenanthridinium diiodide-positive objects were defined in FL3 (565-600 nm) with a perimeter between 50-800 μm and a total intensity of 10000-1000000 FLU. Signal in FL2 (500-530 nm) was measured in defined objects. A normalized ratio of total ln FL2 over total ln FL3 staining was log transformed. A non-linear regression (variable slope, 4 parameters) was used to calculate EC50 values using GraphPad Prism (Version 7.0d).

Compound | EC50 [µM]
CC(=O)N1CCCC(c2nc(Nc3ccon3)cc(-c3cncc4[nH]ccc34)n2)C1 (centres unmarked) | > 10
CCC(=O)N1CCCC(c2nc(Nc3cccc(F)c3)cc(-c3cccc(-c4nnc(C)o4)c3)n2)C1 (centres unmarked) | 1 to 10
CCC(=O)N1CCCC(c2nc(Nc3cccc(F)c3)cc(-c3cncc4ccccc34)n2)C1 (centres unmarked) | > 10
CCC(=O)N1CCCC(c2nc(Nc3cccc(F)c3)cc(Nc3ncccn3)n2)C1 (centres unmarked) | 1 to 10
CC(=O)N1C[C@H](c2nc(Nc3cccc(C)c3)cc(-c3cccnc3)n2)CC[C@@H]1C(F)(F)F | < 1
CC(=O)N1CCCC(c2nc(Nc3cccc(F)c3)cc(-c3cnc4[nH]ccc4c3)n2)C1 (centres unmarked) | 1 to 10
CC(=O)N1CCCC(c2nc(Nc3cccc(F)c3)cc(-c3sc(C(C)C)nc3C)n2)C1 (centres unmarked) | 1 to 10
CC(=O)N1CC(c2nc(Nc3cccc(F)c3)cc(-c3cccnc3)n2)CC(C)C1C (centres unmarked) | < 1
CC(=O)N1C[C@H](c2nc(Nc3cccc(F)c3)cc(-c3cncc(O)c3)n2)CC[C@@H]1C | < 1
CC(=O)N1CCOC(c2nc(Nc3cccc(F)c3)cc(-c3cccnc3)n2)C1 (centres unmarked) | > 10
CCC(=O)N1CCCC(c2nc(Nc3cccc(C)c3)cc(-c3cccnc3)n2)C1 (centres unmarked) | 1 to 10
CCC(=O)N1CCCC(c2nc(Nc3cccc(Cl)c3)cc(-c3cccnc3)n2)C1 (centres unmarked) | 1 to 10
CS(=O)(=O)N1CCCC(c2nc(Nc3cccc(F)c3)cc(-c3cccnc3)n2)C1 (centres unmarked) | > 10
CC(=O)N1CCCC(c2nc(Nc3cccc(F)c3)nc(-c3ccccc3)n2)C1 (centres unmarked) | 1 to 10
CC(=O)N1CCCC(c2nc(NC3CCCC3)cc(-c3cccnc3)n2)C1 (centres unmarked) | > 10
CC(=O)N1CC(c2nc(Nc3cccc(F)c3)cc(-c3cccnc3)n2)CCC1(C)C (centres unmarked) | > 10
CC(=O)N1CC(c2cc(Nc3cccc(F)c3)cc(-c3cccnc3)n2)CCC1C (centres unmarked) [drawing 689] | > 10
CCC(=O)N1CCCC(c2nc(-c3cccnc3)cc(N(c3cccc(F)c3)C(C)C)n2)C1 (centres unmarked) | > 10
COc1cncc(-c2cc(Nc3cccc(-n4cnnc4)c3)nc(C3CCCN(C(C)=O)C3)n2)c1 (centres unmarked) | > 10
COC(=O)N1CCCC(c2nc(Nc3cccc(F)c3)cc(-c3cccnc3)n2)C1 (centres unmarked) | 1 to 10
CC(=O)N1C[C@H](c2nc(Nc3ccccc3)cc(-c3cncnc3)n2)CC[C@@H]1C | < 1
COc1cncc(-c2cc(Nc3cccc(C)c3)nc(C3CCCN(C(C)=O)C3)n2)c1 (centres unmarked) | < 1
CC(=O)N1CCOCC(c2nc(Nc3cccc(F)c3)cc(-c3cccnc3)n2)C1 (centres unmarked) | 1 to 10

Compound | EC50 [µM]
CCC(=O)N1CCCC(c2nc(Nc3cccc(F)c3)cc(-c3cc[nH]n3)n2)C1 (centres unmarked) | > 10
CCC(=O)N1CCCC(c2nc(Nc3cccc(F)c3)cc(NC3CCC3)n2)C1 (centres unmarked) | > 10
CC(=O)N1CCCC(c2nc(Nc3cc(F)cc(F)c3)cc(-c3c(C)noc3C)n2)C1 (centres unmarked) | 1 to 10
CCC(=O)N1CCCC(c2nc(Nc3ccc(F)cc3)cc(-c3cccnc3)n2)C1 (centres unmarked) | > 10
CC(=O)N1CCCC(c2cc(Nc3cccc(F)c3)nc(-c3cccnc3)c2)C1 (centres unmarked) | > 10
CCC(=O)N1CCCC(c2nc(Nc3cccc(F)c3)cc(-c3cn(C)nc3C)n2)C1 (centres unmarked) | > 10
CCC(=O)N1CCCC(c2nc(Nc3cccc(F)c3)cc(-c3csc4cnccc34)n2)C1 (centres unmarked) | 1 to 10
CCC(=O)N1CCCC(c2nc(NC3CCCC3)cc(-c3cccnc3)n2)C1 (centres unmarked) | > 10
CC(=O)N1CCCC(c2nc(Nc3cccc(F)c3)cc(-c3cc(Cl)cs3)n2)C1 (centres unmarked) | 1 to 10
O=S(=O)(N1CCCC(c2nc(Nc3cccc(F)c3)cc(-c3cccnc3)n2)C1)C(F)(F)F (centres unmarked) | > 10
CNC(=O)c1cncc(-c2cc(Nc3cccc(F)c3)nc(C3CCCN(C(C)=O)C3)n2)c1 (centres unmarked) | < 1
O=CN1CCCC(c2nc(Nc3cccc(F)c3)cc(-c3cccnc3)n2)C1 (centres unmarked) | > 10
COc1cncc(-c2cc(Nc3cccc(Cl)c3)nc([C@@H]3CC[C@H](C)N(C(C)=O)C3)n2)c1 | < 1
CCC(=O)N1CCCC(c2nc(Nc3ccc(O)nc3)cc(-c3cccnc3)n2)C1 (centres unmarked) | > 10
CC(=O)N1CCC(C)C(c2nc(Nc3cccc(F)c3)cc(-c3cccnc3)n2)C1 (centres unmarked) [drawing 719] | 1 to 10
CCC(=O)N1CCCC(c2nc(Nc3ccc(OC)cc3)cc(-c3cccnc3)n2)C1 (centres unmarked) | 1 to 10
CCC(=O)N1CCCC(c2nc(Nc3cccc(F)c3)cc(-c3sc(C(C)C)nc3C)n2)C1 (centres unmarked) | 1 to 10
CC(=O)N1CCCC(c2nc(Nc3cccc(F)c3)cc(-c3cncc(C)c3)n2)C1 (centres unmarked) | < 1
CC(=O)N1CC(F)CC(c2nc(Nc3cccc(F)c3)cc(-c3cccnc3)n2)C1 (centres unmarked) [drawing 703] | 1 to 10
CCC(=O)N1CCCC(c2nc(Nc3ccccc3F)cc(-c3cccnc3)n2)C1 (centres unmarked) | 1 to 10
CC(C)C(=O)N1CCCC(c2nc(Nc3cccc(F)c3)cc(-c3cccnc3)n2)C1 (centres unmarked) | > 10
CC(=O)N1CCCC(c2nc(Nc3cccc(F)c3)cc(-c3cncc(C(=O)N4CCOCC4)c3)n2)C1 (centres unmarked) | 1 to 10

Second part, the molecule after the results:

EC50 [µM] | Compound
> 10 | CC(=O)N1CCCC(c2nc(Nc3cccc(F)c3)cc(N3CCOCC3)n2)C1 (centres unmarked)
> 10 | Fc1cccc(Nc2cc(-c3cccnc3)nc(C3CCCN(CC(F)(F)F)C3)n2)c1 (centres unmarked)
1 to 10 | CC(=O)N1CC(c2cc(Nc3cccc(F)c3)cc(-c3cccnc3)n2)=CCC1C (centres unmarked)
1 to 10 | CC(=O)NCCOCCOCCOCC(=O)Nc1ccc(-c2cc(Nc3cccc(F)c3)nc(C3CCCN(C(C)=O)C3)n2)cc1 (centres unmarked)
> 10 | CCC(=O)N1CCCC(c2nc(Nc3cccc(F)c3)cc(-c3ccccc3C(=O)NC)n2)C1 (centres unmarked)
> 10 | CC(=O)N1CC2(c3nc(Nc4cccc(F)c4)cc(-c4cccnc4)n3)CCC1CC2
> 10 | CC(=O)N1CCCC(c2nc(Nc3cncc(C)n3)cc(-c3cncnc3)n2)C1 (centres unmarked)
> 10 | CC(=O)N1C[C@@H](c2nc(Nc3cccc(F)c3)cc(-c3cncc(O)c3)n2)CC[C@H]1C
< 1 | CC(=O)N1C[C@H](c2nc(Nc3cncc(C)c3)cc(Nc3ncccn3)n2)CC[C@@H]1C
< 1 | CC(=O)N1CCCCC(c2nc(Nc3cccc(F)c3)cc(-c3cccnc3)n2)C1 (centres unmarked)
< 1 | CC(=O)N1CCCC(c2nc(Nc3cccc(C)c3)cc(-c3cncc4[nH]ncc34)n2)C1 (centres unmarked)
< 1 | CC(=O)Nc1cncc(-c2cc(Nc3cccc(F)c3)nc(C3CCCN(C(C)=O)C3)n2)c1 (centres unmarked)
1 to 10 | CC(=O)N1CCC(C)C(c2nc(Nc3cccc(F)c3)cc(-c3cccnc3)n2)C1 (centres unmarked) [drawing 720]
> 10 | CC(=O)N1CCCC(c2nc(NC34CC(C3)C4)cc(-c3cncnc3)n2)C1 (centres unmarked)
> 10 | CC(=O)N1CCCC(c2nc(Nc3cccc(F)c3)cc(-c3ccc(N4CCS(=O)(=O)CC4)nc3)n2)C1 (centres unmarked)
> 10 | CC(=O)N1CCCC(c2nc(NC3CCCCC3)cc(-c3cccnc3)n2)C1 (centres unmarked)
> 10 | Fc1cccc(Nc2cc(-c3cccnc3)nc(C3CCCNC3)n2)c1 (centres unmarked)
1 to 10 | CC(=O)N1CCCC(c2cc(-c3cccnc3)cc(Nc3cccc(F)c3)n2)C1 (centres unmarked)
> 10 | CCC(=O)N1CCCC(c2nc(Nc3cccc(F)c3)cc(-c3ccc(C(=O)NC)nc3)n2)C1 (centres unmarked)
> 10 | CC(=O)N1CCCC(c2nc(Nc3cccc(F)c3)cc(-c3cncc4cc[nH]c34)n2)C1 (centres unmarked)
1 to 10 | CCC(=O)N1CCCC(c2nc(Nc3cccc(F)c3)cc(-c3cnccc3OC)n2)C1 (centres unmarked)

EC50 [µM] | Compound
> 10 | COCCOCCOCC(=O)N1CCCC(c2nc(Nc3cccc(F)c3)cc(-c3cccnc3)n2)C1 (centres unmarked)
> 10 | CCC(=O)N1CCC[C@H](c2nc(Nc3cccc(F)c3)cc(-c3cccnc3)n2)C1
> 10 | CC(=O)N1CCCC(c2nc(Nc3ccc4c(c3)CCC4)cc(-c3cccnc3)n2)C1 (centres unmarked)
> 10 | CC(=O)N1CCCC(c2nc(Nc3ccccn3)cc(-c3cncnc3)n2)C1 (centres unmarked)
< 1 | CC(=O)N1CCCC(c2nc(Nc3cccc(F)c3)cc(-c3cncc(N4CCOCC4)c3)n2)C1 (centres unmarked)
1 to 10 | CC(=O)N1CCCC(c2nc(Nc3ccccn3)cc(-c3cncc4[nH]ccc34)n2)C1 (centres unmarked)
> 10 | CCC(=O)N1CCCC(c2nc(Cl)cc(Oc3cccc(F)c3)n2)C1 (centres unmarked)
> 10 | CC(=O)N1CCCC(c2nc(Nc3cccc(F)c3)cc(-c3csc4cnccc34)n2)C1 (centres unmarked)
1 to 10 | COc1cncc(-c2cc(N(C)c3cccc(C)c3)nc(C3CCCN(C(C)=O)C3)n2)c1 (centres unmarked)
1 to 10 | CC(=O)N1CCCC(c2cc(Nc3cccc(F)c3)cc(-c3c(C)noc3C)n2)C1 (centres unmarked)
1 to 10 | CCC(=O)N1CCCC(c2nc(Nc3cccc(F)c3)cc(-c3cccc(C#N)c3)n2)C1 (centres unmarked)
< 1 | CC(=O)N1CCCC(c2nc(Nc3cccc(C)c3)cc(-c3cncc4[nH]ccc34)n2)C1 (centres unmarked)
1 to 10 | CC(=O)N1CCCC(c2nc(Nc3cccc(F)c3)cc(-c3ccc(C)nc3)n2)C1 (centres unmarked)
> 10 | CN1CC(c2nc(Nc3cccc(F)c3)cc(-c3cccnc3)n2)CCC1=O (centres unmarked)
< 1 | CCc1cncc(-c2cc(Nc3cccc(F)c3)nc(C3CCCN(C(C)=O)C3)n2)c1 (centres unmarked)
< 1 | CC(=O)N1CCCC(c2nc(Nc3cccc(C)c3)cc(-c3cncc(N4CCOCC4)c3)n2)C1 (centres unmarked)
> 10 | CC(=O)N1CCCC(c2nc(Nc3cccnc3)cc(-c3cncnc3)n2)C1 (centres unmarked)
> 10 | CCC(=O)N1CCCC(c2nc(Nc3cccc(F)c3)cc(-c3cnn(C4CCC4)c3)n2)C1 (centres unmarked)
> 10 | CCC(=O)N1CCCC(c2nc(Nc3cccc(F)c3)cc(-c3cccc(C(=O)NC)c3)n2)C1 (centres unmarked)
1 to 10 | CCC(=O)N1CCCC(c2nc(Nc3cc(F)cc(F)c3)cc(-c3cccnc3)n2)C1 (centres unmarked)
